According to patent EP0080822A1, “Anti-hypertensive prolinol-based peptides” (BEECHAM GROUP PLC, priority 1981, dated 1983):

What was measured:
[1] = biological target: T1, rat lung angiotensin converting enzyme preparation (Rattus norvegicus, UniProt P47820); assay: In vitro test for inhibition of angiotensin converting enzyme; assay type: biochemical; details: mean of 3 experiments; read-out: 50% inhibitior. (IC50) of rat lung angiotensin converting enzyme preparation
T1 construct: rat lung angiotensin converting enzyme preparation; from tissue; host or cells: rat lung
T1 sequence (P47820 36-1313): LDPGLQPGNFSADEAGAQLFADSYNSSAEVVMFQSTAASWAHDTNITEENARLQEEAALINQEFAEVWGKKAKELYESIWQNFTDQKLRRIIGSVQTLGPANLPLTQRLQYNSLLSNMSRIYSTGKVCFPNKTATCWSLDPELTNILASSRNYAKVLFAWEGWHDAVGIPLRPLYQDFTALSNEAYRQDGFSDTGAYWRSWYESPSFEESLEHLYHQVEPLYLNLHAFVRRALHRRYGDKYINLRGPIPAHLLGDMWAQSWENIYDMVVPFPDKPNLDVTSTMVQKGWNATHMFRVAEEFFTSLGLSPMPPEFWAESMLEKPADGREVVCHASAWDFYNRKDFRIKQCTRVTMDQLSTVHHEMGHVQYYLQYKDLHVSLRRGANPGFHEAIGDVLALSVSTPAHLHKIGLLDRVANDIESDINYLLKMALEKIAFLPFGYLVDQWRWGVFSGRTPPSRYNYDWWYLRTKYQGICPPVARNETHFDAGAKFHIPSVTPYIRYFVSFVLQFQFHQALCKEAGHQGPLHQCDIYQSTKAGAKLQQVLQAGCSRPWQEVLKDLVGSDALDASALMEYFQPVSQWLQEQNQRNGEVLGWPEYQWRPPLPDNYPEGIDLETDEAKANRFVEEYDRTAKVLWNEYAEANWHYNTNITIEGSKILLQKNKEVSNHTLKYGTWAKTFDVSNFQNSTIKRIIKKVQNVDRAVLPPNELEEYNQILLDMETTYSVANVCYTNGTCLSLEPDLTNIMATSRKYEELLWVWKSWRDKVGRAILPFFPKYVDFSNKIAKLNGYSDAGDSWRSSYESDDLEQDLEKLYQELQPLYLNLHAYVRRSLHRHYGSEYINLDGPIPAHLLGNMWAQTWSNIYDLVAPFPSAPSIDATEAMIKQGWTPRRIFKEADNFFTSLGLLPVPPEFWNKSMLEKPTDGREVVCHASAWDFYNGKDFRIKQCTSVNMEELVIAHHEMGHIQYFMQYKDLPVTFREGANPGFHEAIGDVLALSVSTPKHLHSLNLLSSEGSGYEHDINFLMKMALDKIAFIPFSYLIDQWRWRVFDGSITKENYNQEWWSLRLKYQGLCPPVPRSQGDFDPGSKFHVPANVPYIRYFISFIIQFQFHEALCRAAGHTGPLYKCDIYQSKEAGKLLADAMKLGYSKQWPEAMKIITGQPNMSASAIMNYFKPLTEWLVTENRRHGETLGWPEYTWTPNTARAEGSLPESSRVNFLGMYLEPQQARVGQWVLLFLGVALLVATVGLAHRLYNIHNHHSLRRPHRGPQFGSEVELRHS
Description: 1. In vitro test for inhibition of angiotensin converting enzyme

[2] = biological target: T2, angiotensin converting enzyme (Rattus norvegicus, UniProt P47820); assay: In vivo test for inhibition of angiotensin converting enzyme: pressor responses to angiotensin I and II in anaesthetised rats
T2 construct: were each tested in anaesthetised rats; from tissue; host or cells: whole animal (anaesthetised rat)
T2 sequence (P47820 36-1313): T1 sequence (P47820 36-1313)
Experimental: 2. In vivo test for inhibition of angiotensin converting enzyme.
The compounds of examples 1,2,4 & 5 were each tested in anaesthetised rats for their ability to reduce the pressor responses to angiotensin I, but not those to angiotensin II. The dose of angiotensin I was 300 n.g/kg (i.v) and the dose of angiotensin II was 100 ng/kg (i.v).
The results given are the mean of those obtained from the given number of rats.
'I' is the increase in diastolic blood pressure (mm Hg) to angiotensin I (control reponse).
'%R' is the percentage reduction in control angiotensin I response after the intervals (min) from dosage.

[3] = test system: Spontaneously hypertensive rats; assay: Antihypertensive activity in spontaneously hypertensive rats (tail cuff method); assay type: in vivo
Experimental: 3. Antihypertensive Activity
Each determination of blood pressure was the mean of at least 6 readings. Spontaneously hypertensive rats (ages 12-18 weeks) with systolic blood pressures 170 mmH:g were considered hypertensive.
The initial blood pressure and heart rats were determined and recorded together with the % changes occuring at intervals thereafter: […]

[4] = 0.03 mg/kg i.v, 5 min from dosage
[5] = 0.03 mg/kg i.v, 10 min from dosage
[6] = 0.03 mg/kg i.v, 15 min from dosage
[7] = 0.10 mg/kg i.v, 5 min from dosage
[8] = 0.10 mg/kg i.v, 10 min from dosage
[9] = 0.10 mg/kg i.v, 15 min from dosage
[10] = 0.10 mg/kg i.v, 25 min from dosage
[11] = 0.10 mg/kg i.v, 30 min from dosage
[12] = 0.10 mg/kg i.v, 40 min from dosage
[13] = 0.10 mg/kg i.v, 45 min from dosage
[14] = 0.10 mg/kg i.v, 50 min from dosage
[15] = 0.30 mg/kg i.v, 5 min from dosage
[16] = 0.30 mg/kg i.v, 10 min from dosage
[17] = 0.30 mg/kg i.v, 15 min from dosage
[18] = 0.30 mg/kg i.v, 25 min from dosage
[19] = 0.30 mg/kg i.v, 30 min from dosage
[20] = 0.30 mg/kg i.v, 40 min from dosage
[21] = 0.30 mg/kg i.v, 45 min from dosage
[22] = 0.30 mg/kg i.v, 50 min from dosage
[23] = 10 mg/kg p.o., 1 hour post dose
[24] = 10 mg/kg p.o., 4 hours post dose
[25] = 10 mg/kg p.o., 6 hours post dose
[26] = 10 mg/kg p.o., 24 hours post dose
[27] = 30 mg/kg p.o., 1 hour post dose
[28] = 30 mg/kg p.o., 2 hours post dose
[29] = 30 mg/kg p.o., 4 hours post dose
[30] = 30 mg/kg p.o., 6 hours post dose
[31] = 30 mg/kg p.o., 24 hours post dose

| %R percentage reduction in control angiotensin I response [2, 7] [%] | %R percentage reduction in control angiotensin I response [2, 8] [%] | %R percentage reduction in control angiotensin I response [2, 9] [%] | %R percentage reduction in control angiotensin I response [2, 10] [%] | %R percentage reduction in control angiotensin I response [2, 11] [%] | %R percentage reduction in control angiotensin I response [2, 12] [%] | %R percentage reduction in control angiotensin I response [2, 13] [%] | %R percentage reduction in control angiotensin I response [2, 14] [%] | Substance | %R percentage reduction in control angiotensin I response [2, 4] [%] | %R percentage reduction in control angiotensin I response [2, 5] [%] | %R percentage reduction in control angiotensin I response [2, 6] [%] | %R percentage reduction in control angiotensin I response [2, 15] [%] | %R percentage reduction in control angiotensin I response [2, 16] [%] | %R percentage reduction in control angiotensin I response [2, 17] [%] | %R percentage reduction in control angiotensin I response [2, 18] [%] | %R percentage reduction in control angiotensin I response [2, 19] [%] | %R percentage reduction in control angiotensin I response [2, 20] [%] | %R percentage reduction in control angiotensin I response [2, 21] [%] | %R percentage reduction in control angiotensin I response [2, 22] [%] | further results |
| --- | --- | --- | --- | --- | --- | --- | --- | --- | --- | --- | --- | --- | --- | --- | --- | --- | --- | --- | --- | --- |
| 60 | 64 | 57 | 41 | 38 | 36 | 32 | 24 | N-(1-Carboxypropyl)-(S)-alanyl-4α-benzyloxy-(S)-proline [Example 1] | 39 | 29 | 6 | 86 | 80 | 77 | 76 | 77 | 73 | 72 | 74 | IC50 [1]: 3.3 nM |
| 34 | 29 | 25 | 15 | 14 | 16 | 14 | – | N-[2-(2,3-dihydro-2-benzofuranyl)-l-(ethoxycarbonyl) -ethyl)-(S)-alanyl -4α-benzyloxy-(S)-nroline [Example 4] | – | – | – | – | – | – | – | – | – | – | – | – |
| 61 | 58 | 52 | 47 | 44 | 39 | – | 18 | N-[4-(2,3-dihydro-2-benzofuranyl)-l-(ethoxycar-α bonyl)-butyl]-(S)-alanyl-4αbenzyloxy-(S)-proline [Example 5] | – | – | – | – | – | – | – | – | – | – | – | % change in heart rate [3, 27]: -2 ± 2%; % change in systolic blood pressure [3, 27]: -10± 3%; % change in heart rate [3, 28]: 0 ± 4%; % change in systolic blood pressure [3, 28]: -7± 2%; % change in heart rate [3, 29]: +5 ± 3%; % change in systolic blood pressure [3, 29]: -23± 1%; % change in heart rate [3, 30]: 0 ± 3%; % change in systolic blood pressure [3, 30]: -17± 1%; % change in heart rate [3, 31]: +9 ± 5%; % change in systolic blood pressure [3, 31]: +1± 3% |

| Substance | %R percentage reduction in control angiotensin I response [2, 7] [%] | %R percentage reduction in control angiotensin I response [2, 8] [%] | %R percentage reduction in control angiotensin I response [2, 9] [%] | %R percentage reduction in control angiotensin I response [2, 10] [%] | %R percentage reduction in control angiotensin I response [2, 11] [%] | %R percentage reduction in control angiotensin I response [2, 12] [%] | %R percentage reduction in control angiotensin I response [2, 13] [%] | %R percentage reduction in control angiotensin I response [2, 14] [%] | %R percentage reduction in control angiotensin I response [2, 4] [%] | %R percentage reduction in control angiotensin I response [2, 5] [%] | %R percentage reduction in control angiotensin I response [2, 6] [%] | %R percentage reduction in control angiotensin I response [2, 15] [%] | %R percentage reduction in control angiotensin I response [2, 16] [%] | %R percentage reduction in control angiotensin I response [2, 17] [%] | %R percentage reduction in control angiotensin I response [2, 18] [%] | %R percentage reduction in control angiotensin I response [2, 19] [%] | %R percentage reduction in control angiotensin I response [2, 20] [%] | %R percentage reduction in control angiotensin I response [2, 21] [%] | %R percentage reduction in control angiotensin I response [2, 22] [%] | further results |
| --- | --- | --- | --- | --- | --- | --- | --- | --- | --- | --- | --- | --- | --- | --- | --- | --- | --- | --- | --- | --- |
| N-(1-carbethoxy-3-phenylpropyl)-(S)-alanyl-4α-benzyloxy-(S)-proline [Example 2] | 67 | 66 | 61 | 53 | 42 | 47 | 39 | 29 | 23 | 25 | 19 | 82 | 81 | 80 | 69 | 67 | 69 | 65 | 60 | % change in heart rate [3, 23]: -7 ± 3%; % change in systolic blood pressure [3, 23]: -5± 3%; % change in systolic blood pressure ([3]; 10 mg/kg p.o., 2 hours post dose): -10± 3%; % change in heart rate [3, 24]: -5 ± 4%; % change in systolic blood pressure [3, 24]: -22± 3%; % change in heart rate [3, 25]: 1 ± 4%; % change in systolic blood pressure [3, 25]: -22± 4%; % change in heart rate [3, 26]: -4 ± 3%; % change in systolic blood pressure [3, 26]: -7± 4%; %R percentage reduction in control angiotensin I response ([2]; 0.03 mg/kg i.v, 25 min from dosage): 12% |
